# Reference: patent US20210221848A1, “POLYMYXIN DERIVATIVES AND THEIR USE IN COMBINATION THERAPY TOGETHER WITH DIFFERENT ANTIBIOTICS” (priority 2014, published 2021)
# Where two headings read alike, the source gives them in different places.
# Tests used:
# [1] = system: K. pneumoniae strains with elevated MICs to Polymyxin B; assay: MIC against strains with elevated MICs to Polymyxin B; assay type: cell-based, Klebsiella pneumoniae; conditions: Table 6D; for MIC K. pneumoniae 062: strain 062, elevated MIC to Polymyxin B; for MIC K. pneumoniae 063: strain 063, elevated MIC to Polymyxin B; for MIC K. pneumoniae 064: strain 064, elevated MIC to Polymyxin B; for MIC K. pneumoniae 655: strain 655, elevated MIC to Polymyxin B
# Description: (§1) The inoculum was prepared by making a direct suspension of isolated colonies (selected from an 18-24 hour Mueller-Hinton agar plate) adjusted to the 0.5 McFarland standard. […] The assays were performed in duplicate. […] In cases where the duplicate values varied by less than 2-fold, the lower of the two values is reported. If a variation of greater than 2-fold was observed, the assay was considered non-valid. Several of the compounds were subjected to multiple tests, and where this is the case, the MIC reflects the modal value obtained.
# (§2) The Further Synthesis Examples were tested against a range of Gram negative bacteria, and tested for HK-2 cell toxicity. All the worked examples, including the Synthesis and Further Synthesis Examples, were also tested against a range of Gram negative bacteria that are resistant to Polymyxin B (i.e. those strains where Polymyxin B has an elevated MIC value).
# [2] = system: P. aeruginosa strains with elevated MICs to Polymyxin B; assay: as above; assay type: cell-based, Pseudomonas aeruginosa; conditions: Table 6D; for MIC P. aeruginosa 065: strain 065, elevated MIC to Polymyxin B; for MIC P. aeruginosa 066: strain 066, elevated MIC to Polymyxin B; for MIC P. aeruginosa 067: strain 067, elevated MIC to Polymyxin B
# Description: as §1, §2
# [3] = system: A. baumanii strains with elevated MICs to Polymyxin B; assay: as above; assay type: cell-based, Acinetobacter baumannii; conditions: Table 6D; for MIC A. baumannii 053: strain 053, elevated MIC to Polymyxin B; for MIC A. baumannii 056: strain 056, elevated MIC to Polymyxin B; for MIC A. baumannii 068: strain 068, elevated MIC to Polymyxin B; for MIC A. baumannii 070: strain 070, elevated MIC to Polymyxin B
# Description: as §1, §2
# [4] = system: E. coli strains with elevated MICs to Polymyxin B; assay: MIC against strains with elevated MICs to Polymyxin B; assay type: cell-based, Escherichia coli; conditions: Table 6D; for MIC E. coli 058: strain 058, elevated MIC to Polymyxin B; for MIC E. coli 059: strain 059, elevated MIC to Polymyxin B; for MIC E. coli 060: strain 060, elevated MIC to Polymyxin B; for MIC E. coli 061: strain 061, elevated MIC to Polymyxin B
# Description: as §1, §2
# [5] = absence of a second agent, Table 6B
Substance,MIC P. aeruginosa 065 [2] [micrograms/mL],"MIC, A. baumannii ATCC BAA-747 (A. baumannii; sole activity, Table 6C) [micrograms/mL]","MIC, A. baumannii NCTC 13424 (A. baumannii; sole activity, Table 6C) [micrograms/mL]","MIC, E. coli ATCC 25922 (E. coli; sole activity, Table 6C) [micrograms/mL]",MIC E. coli 058 [4] [micrograms/mL],"MIC, P. aeruginosa ATCC 27853 (P. aeruginosa; sole activity, Table 6C) [micrograms/mL]","MIC, P. aeruginosa CCUG 59347 (P. aeruginosa; sole activity, Table 6C) [micrograms/mL]","MIC, K. pneumoniae ATCC 4352 (K. pneumoniae; sole activity, Table 6C) [micrograms/mL]","MIC, E. coli NCTC 13441 (E. coli; sole activity, Table 6C) [micrograms/mL]","MIC, K. pneumoniae ATCC BAA-2146 (K. pneumoniae; sole activity, Table 6C) [micrograms/mL]","MIC, A. baumannii ATCC BAA-747 (A. baumannii; [5]) [micrograms/mL]","MIC, E. coli ATCC 25922 (E. coli; [5]) [micrograms/mL]","MIC, E. coli NCTC 13441 (E. coli; [5]) [micrograms/mL]","MIC, P. aeruginosa ATCC 27853 (P. aeruginosa; [5]) [micrograms/mL]","MIC, P. aeruginosa CCUG 59347 (P. aeruginosa; [5]) [micrograms/mL]","MIC, K. pneumoniae ATCC BAA-2146 (K. pneumoniae; [5]) [micrograms/mL]","MIC, A. baumannii NCTC 13424 (A. baumannii; [5]) [micrograms/mL]","MIC, K. pneumoniae ATCC 4352 (K. pneumoniae; [5]) [micrograms/mL]",further results
(trans-5-(isobutyl- piperidine)-3- carbonyl L-Thr- D-Dap-polymyxin B heptapeptide [Example D87],0.5,0.03,0.03,0.03,1,0.25,1,0.06,,,,,,,,,,,MIC K. pneumoniae 062 [1]: 8 micrograms/mL; MIC K. pneumoniae 063 [1]: 8 micrograms/mL; MIC K. pneumoniae 064 [1]: 0.5 micrograms/mL; MIC K. pneumoniae 655 [1]: 4 micrograms/mL; MIC P. aeruginosa 066 [2]: 0.25 micrograms/mL; MIC P. aeruginosa 067 [2]: 64 micrograms/mL; MIC A. baumannii 053 [3]: 32 micrograms/mL; MIC A. baumannii 056 [3]: 2 micrograms/mL; MIC A. baumannii 068 [3]: 2 micrograms/mL; MIC A. baumannii 070 [3]: 2 micrograms/mL; MIC E. coli 059 [4]: 1 micrograms/mL; MIC E. coli 060 [4]: 1 micrograms/mL; MIC E. coli 061 [4]: 4 micrograms/mL
1-(2- trifluoromethylben- zyl)piperazine- 2-carbonyl polymyxin E nonapeptide [Example D72],,0.125,,0.25,,0.5,1,0.125,0.25,0.25,,,,,,,,,MIC K. pneumoniae 062 [1]: 64 micrograms/mL; MIC K. pneumoniae 063 [1]: 32 micrograms/mL; MIC K. pneumoniae 655 [1]: 64 micrograms/mL; MIC A. baumannii 053 [3]: >128 micrograms/mL; MIC A. baumannii 056 [3]: 128 micrograms/mL; MIC A. baumannii 068 [3]: 64 micrograms/mL; MIC A. baumannii 070 [3]: 128 micrograms/mL; MIC E. coli 059 [4]: 16 micrograms/mL; MIC E. coli 060 [4]: 8 micrograms/mL; MIC E. coli 061 [4]: 16 micrograms/mL
Cis-5-(N- isobutylsulfamoyl) piperidine-3- carbonyl L-Thr-L- Dap-polymyxin B heptapeptide [Example D94],32,0.06,0.06,0.03,16,0.5,1,,,,,,,,,,,,
(cis-5- cyclohexylpiperidine)- 3-carbonyl L-Thr-L- Dap-polymyxin B heptapeptide [Example D44],1,,,,2,,,,,,0.25,1,0.5,0.25,0.5,0.5,,,MIC K. pneumoniae 064 [1]: 2 micrograms/mL; MIC K. pneumoniae 655 [1]: 32 micrograms/mL; MIC P. aeruginosa 066 [2]: 0.5 micrograms/mL; MIC P. aeruginosa 067 [2]: 64 micrograms/mL
(S)-4-amino-2- (((S)-6- methyloctanoyl)ox- y)butanoyl polymyxin B nonapeptide [Example D93],2,0.25,0.5,0.25,8,0.25,1,0.25,,,,,,,,,,,
2-benzyl-3- (methylamino)pro- panoyl polymyxin B nonapeptide [Example D57],,4,2,0.25,,0.5,1,0.25,0.5,0.25,,,,,,,,,
4- (isobutylamino)pi- peridine-3- carbonyl L-Thr-L- Dap-polymyxin B heptapeptide [Example D74],,2,2,0.25,,0.25,0.5,0.125,0.25,0.5,,,,,,,,,
(trans-5-(2- methylpropyl) piperidine)-3-carbonyl polymyxin B nonapeptide [Example D49],,,,,,,,,,,>8,8,8,2,4,8,>8,4,
(S)-3-amino-2- (benzyloxy)propan- oyl Polymyxin B nonapeptide [Example D61],,2,1,0.5,,0.5,1,0.25,0.5,0.25,,,,,,,,,
(cis-5-(2-methylpropyl) piperidine)-3-carbonyl polymyxin B nonapeptide [Example D47],,,,,,,,,,,>8,4,8,2,>8,8,>8,4,
(cis-5- cyclohexylpiperidine)- 3-carbonyl L-Thr-L- Dap-polymyxin B heptapeptide [Example D43],,,,,,,,,,,4,2,4,1,2,4,4,2,
2-(2-aminoethyl)-4- methyl pentanoyl polymyxin B nonapeptide [Example D45],,,,,,,,,,,8,0.5,2,1,4,2,4,0.5,
"(S)-1-((2,3- dihydrobenzo[b][1,4] dioxin-6- yl)methyl)piperazine- 2-carbonyl polymyxin B nonapeptide [Example D58]",,1,0.5,0.25,,0.5,1,0.25,0.25,0.25,,,,,,,,,
